Five compounds from US20230150974A1 (Foghorn Therapeutics Inc., priority 2020, published 2023) can be followed below.

One assay addresses T1, HiBit-BRG1 (Homo sapiens, UniProt P51532).
T1 construct: expressed in transfected cells
The experiment in a line: HiBit-BRG1 cell-based degradation assay (Nano-Glo HiBiT Lytic Detection). The following applies: HeLa cells expressing HiBit-BRG1 and LgBit, 24 h; for DC50: read-out: BRG1 HiBit Degradation IC50; for Dmax: read-out: BRG1 HiBit Degradation Maximum (%). The essentials:
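Luminescence from Nano-Glo HiBiT lytic detection, read after 24 h compound exposure, scored degradation in a stable HeLa HiBiT-BRG1/LgBit line seeded at 5000 cells/well. DMSO wells defined 0% and 2 μM known BRM/BRG1 degrader wells defined full degradation.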

The target of the next assay is T2, HiBiT-BRM (Homo sapiens, UniProt P51531).
T2 construct: expressed in transfected cells
T2 sequence (P51531 whole entry): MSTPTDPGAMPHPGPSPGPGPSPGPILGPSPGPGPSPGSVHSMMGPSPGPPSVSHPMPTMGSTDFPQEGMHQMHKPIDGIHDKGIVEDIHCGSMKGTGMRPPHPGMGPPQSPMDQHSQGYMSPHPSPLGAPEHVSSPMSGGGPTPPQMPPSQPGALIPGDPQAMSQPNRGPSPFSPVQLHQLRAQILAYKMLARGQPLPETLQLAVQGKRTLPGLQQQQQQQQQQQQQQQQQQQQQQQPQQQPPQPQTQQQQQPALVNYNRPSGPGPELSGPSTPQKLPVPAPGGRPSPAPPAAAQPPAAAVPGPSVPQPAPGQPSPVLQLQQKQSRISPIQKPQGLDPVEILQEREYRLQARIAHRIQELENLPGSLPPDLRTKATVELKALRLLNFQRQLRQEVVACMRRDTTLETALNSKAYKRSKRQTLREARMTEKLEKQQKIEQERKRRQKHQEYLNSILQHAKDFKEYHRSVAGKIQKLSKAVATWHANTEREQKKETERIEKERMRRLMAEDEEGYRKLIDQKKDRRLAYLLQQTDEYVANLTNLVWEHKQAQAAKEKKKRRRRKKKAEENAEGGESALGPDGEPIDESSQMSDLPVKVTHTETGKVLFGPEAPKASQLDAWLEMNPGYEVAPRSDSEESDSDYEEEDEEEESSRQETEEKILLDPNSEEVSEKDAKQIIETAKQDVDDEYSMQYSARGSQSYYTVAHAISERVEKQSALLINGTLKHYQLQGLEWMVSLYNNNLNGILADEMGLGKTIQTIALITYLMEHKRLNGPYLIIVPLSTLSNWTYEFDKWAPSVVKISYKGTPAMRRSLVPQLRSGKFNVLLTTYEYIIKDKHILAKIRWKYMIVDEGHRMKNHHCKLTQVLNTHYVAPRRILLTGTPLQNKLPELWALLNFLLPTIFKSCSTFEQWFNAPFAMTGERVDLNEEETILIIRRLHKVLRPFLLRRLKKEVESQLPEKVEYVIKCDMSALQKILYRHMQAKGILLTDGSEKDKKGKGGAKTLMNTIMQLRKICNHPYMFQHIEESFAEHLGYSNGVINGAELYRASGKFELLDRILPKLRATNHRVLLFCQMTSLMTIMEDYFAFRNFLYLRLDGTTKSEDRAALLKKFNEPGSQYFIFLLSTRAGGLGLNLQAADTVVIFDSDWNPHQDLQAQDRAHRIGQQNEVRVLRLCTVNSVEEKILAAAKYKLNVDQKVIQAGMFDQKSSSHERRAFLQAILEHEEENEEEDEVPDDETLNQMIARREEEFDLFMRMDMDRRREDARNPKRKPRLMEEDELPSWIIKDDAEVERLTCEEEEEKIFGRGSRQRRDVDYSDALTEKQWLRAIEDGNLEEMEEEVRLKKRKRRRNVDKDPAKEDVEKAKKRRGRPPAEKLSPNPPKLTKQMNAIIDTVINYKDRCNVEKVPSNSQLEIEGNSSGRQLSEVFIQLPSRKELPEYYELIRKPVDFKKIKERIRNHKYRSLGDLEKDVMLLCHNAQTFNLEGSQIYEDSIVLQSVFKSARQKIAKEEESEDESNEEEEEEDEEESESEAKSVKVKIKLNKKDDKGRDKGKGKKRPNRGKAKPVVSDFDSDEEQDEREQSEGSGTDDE
In words: HiBiT-BRM cell-based degradation assay (Nano-Glo HiBiT Lytic Detection). The following applies: HeLa cells expressing HiBiT-BRM, 24 h; for DC50: read-out: BRM HiBit Degradation IC50. The method in brief:
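HeLa cells stably expressing HiBiT-tagged BRM were treated for 24 h, then lysed with LgBiT-containing Nano-Glo reagent and luminescence read. % degradation scaled between DMSO (high control) and 2 μM reference BRM/BRG1 degrader (low control).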
A general note: With HiBiT, luminescence reflects the tagged protein that the partner subunit can reach.

Structures are written as SMILES. Bounds are passed on as bounds.

T1 sequence (P51532 whole entry): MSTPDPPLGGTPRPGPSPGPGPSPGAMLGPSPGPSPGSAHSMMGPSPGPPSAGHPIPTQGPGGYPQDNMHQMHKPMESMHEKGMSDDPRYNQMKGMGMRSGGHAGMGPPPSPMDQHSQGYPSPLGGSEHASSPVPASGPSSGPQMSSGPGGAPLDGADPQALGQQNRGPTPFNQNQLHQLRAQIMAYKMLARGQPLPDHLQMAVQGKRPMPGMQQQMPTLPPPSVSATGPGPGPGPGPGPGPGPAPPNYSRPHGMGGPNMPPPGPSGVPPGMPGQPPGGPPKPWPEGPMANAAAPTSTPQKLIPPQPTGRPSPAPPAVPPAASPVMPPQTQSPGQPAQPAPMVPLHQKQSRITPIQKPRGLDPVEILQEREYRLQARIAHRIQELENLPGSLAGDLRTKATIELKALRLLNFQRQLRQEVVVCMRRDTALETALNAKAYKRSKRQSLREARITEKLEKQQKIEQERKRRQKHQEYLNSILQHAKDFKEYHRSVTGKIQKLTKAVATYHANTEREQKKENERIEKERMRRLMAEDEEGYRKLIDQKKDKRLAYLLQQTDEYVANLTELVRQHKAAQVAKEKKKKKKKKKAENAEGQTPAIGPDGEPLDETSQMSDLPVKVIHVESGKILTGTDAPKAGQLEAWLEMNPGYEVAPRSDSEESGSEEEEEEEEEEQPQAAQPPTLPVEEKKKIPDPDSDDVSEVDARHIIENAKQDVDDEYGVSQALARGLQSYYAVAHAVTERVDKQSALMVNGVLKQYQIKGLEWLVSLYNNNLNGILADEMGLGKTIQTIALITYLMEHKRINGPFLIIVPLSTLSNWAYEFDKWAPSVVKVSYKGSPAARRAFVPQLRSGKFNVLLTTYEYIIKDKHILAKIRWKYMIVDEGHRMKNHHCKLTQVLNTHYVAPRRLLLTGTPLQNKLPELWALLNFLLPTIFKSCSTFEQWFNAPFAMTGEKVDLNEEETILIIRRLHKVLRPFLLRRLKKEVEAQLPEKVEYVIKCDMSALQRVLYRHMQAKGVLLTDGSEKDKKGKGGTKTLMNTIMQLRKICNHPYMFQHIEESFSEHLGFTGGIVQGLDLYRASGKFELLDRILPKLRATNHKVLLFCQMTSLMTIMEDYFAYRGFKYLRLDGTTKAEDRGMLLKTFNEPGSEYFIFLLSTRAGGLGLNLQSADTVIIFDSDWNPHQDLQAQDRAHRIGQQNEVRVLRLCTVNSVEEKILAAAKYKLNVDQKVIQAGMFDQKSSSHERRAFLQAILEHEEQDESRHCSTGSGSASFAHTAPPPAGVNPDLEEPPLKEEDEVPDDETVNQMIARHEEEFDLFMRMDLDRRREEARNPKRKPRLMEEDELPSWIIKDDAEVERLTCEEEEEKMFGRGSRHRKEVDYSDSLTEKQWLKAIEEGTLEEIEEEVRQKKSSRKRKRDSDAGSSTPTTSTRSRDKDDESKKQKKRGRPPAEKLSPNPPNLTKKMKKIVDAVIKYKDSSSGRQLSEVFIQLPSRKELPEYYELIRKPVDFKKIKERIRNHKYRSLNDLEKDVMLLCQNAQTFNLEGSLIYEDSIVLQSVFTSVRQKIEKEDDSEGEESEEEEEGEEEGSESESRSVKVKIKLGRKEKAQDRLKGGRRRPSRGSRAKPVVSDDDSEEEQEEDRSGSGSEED

As to `Nc1nnc(-c2ccccc2O)cc1N1CCN(CCNC(=O)CCCCCCCOc2cccc3c2C(=O)N(C2CCC(=O)NC2=O)C3=O)CC1` (centres unmarked) [Compound 90, N-(2-[4-[3-amino-6-(2-hydroxyphenyl)pyridazin-4-yl]piperazin-1-yl]ethyl)-8-[[2-(2,6-dioxopiperidin-3-yl)-1,3-dioxo-2,3-dihydro-1H-isoindol-4-yl]oxy]octanamide], at HiBit-BRG1, the DC50 is greater than 1000 nM and the Dmax is less than 50%. Moreover, at HiBiT-BRM, the “BRM HiBit Degradation Maximum (%)” value was “C (“C” indicates maximum degradation <50%)” and the DC50 was greater than 1000 nM.

As to `Cc1ncsc1-c1ccc(CNC(=O)[C@@H]2C[C@@H](O)CN2C(=O)[C@@H](NC(=O)CCN2CC3(C2)CN(C(=O)c2ccc(CCOc4cc(-c5ccccc5O)nnc4N)cc2)C3)C(C)(C)C)cc1` [Compound 200, (2S,4R)-1-((S)-2-(3-(6-(4-(2-((3-amino-6-(2-hydroxyphenyl)pyridazin-4-yl)oxy)ethyl)benzoyl)-2,6-diazaspiro[3.3]heptan-2-yl)propanamido)-3,3-dimethylbutanoyl)-4-hydroxy-N-(4-(4-methylthiazol-5-yl)benzyl)pyrrolidine-2-carboxamide], at HiBit-BRG1, the DC50 is greater than 1000 nM and the Dmax is less than 50%. For the same compound, on HiBiT-BRM, the “BRM HiBit Degradation Maximum (%)” value is reported as “C (“C” indicates maximum degradation <50%)” and the DC50 is greater than 1000 nM.

`CN(CCc1ccc(CNC(=O)CCCCOc2cccc3c2C(=O)N(C2CCC(=O)NC2=O)C3=O)cc1)c1cc(-c2ccccc2O)nnc1N` (centres unmarked) [Compound 146, N-(4-(2-((3-amino-6-(2-hydroxyphenyl)pyridazin-4-yl)(methyl)amino)ethyl)benzyl)-5-((2-(2,6-dioxopiperidin-3-yl)-1,3-dioxoisoindolin-4-yl)oxy)pentanamide]: on HiBit-BRG1, the DC50 is greater than 1000 nM and the Dmax was less than 50%. Besides, on HiBiT-BRM, the “BRM HiBit Degradation Maximum (%)” value is “C (“C” indicates maximum degradation <50%)” and the DC50 is greater than 1000 nM.

As for `Cc1ncsc1-c1ccc([C@H](C)NC(=O)[C@@H]2C[C@@H](O)CN2C(=O)[C@@H](NC(=O)CCCCCCCCCCCCCC(=O)NCc2ccc(CCN(C)c3cc(-c4ccccc4O)nnc3N)cc2)C(C)(C)C)cc1` [Compound 255, N1-(4-(2-((3-amino-6-(2-hydroxyphenyl)pyridazin-4-yl)(methyl)amino)ethyl)benzyl)-N15-((S)-1-((2S,4R)-4-hydroxy-2-(((S)-1-(4-(4-methylthiazol-5-yl)phenyl)ethyl)carbamoyl)pyrrolidin-1-yl)-3,3-dimethyl-1-oxobutan-2-yl)pentadecanediamide], at HiBit-BRG1, the DC50 was greater than 1000 nM and the Dmax was less than 50%. Also, at HiBiT-BRM, the “BRM HiBit Degradation Maximum (%)” value is listed as “A (“A” indicates maximum degradation ≥75%)” and the DC50 was greater than 10 nM.

Take `Cc1ncsc1-c1ccc([C@H](C)NC(=O)[C@@H]2C[C@@H](O)CN2C(=O)[C@@H](NC(=O)CCN2CCC(OC3CCN(CCC(=O)NCc4ccc(CCOc5cc(-c6ccccc6O)nnc5N)cc4)CC3)CC2)C(C)(C)C)cc1` [Compound 249, (2S,4R)-1-((S)-2-(3-(4-((1-(3-((4-(2-((3-amino-6-(2-hydroxyphenyl)pyridazin-4-yl)oxy)ethyl)benzyl)amino)-3-oxopropyl)piperidin-4-yl)oxy)piperidin-1-yl)propanamido)-3,3-dimethylbutanoyl)-4-hydroxy-N-((S)-1-(4-(4-methylthiazol-5-yl)phenyl)ethyl)pyrrolidine-2-carboxamide]: on HiBit-BRG1, the DC50 was greater than 1000 nM and the Dmax is less than 50%. Also, on HiBiT-BRM, the “BRM HiBit Degradation Maximum (%)” value is on record as “A (“A” indicates maximum degradation ≥75%)” and the DC50 is greater than 1000 nM.
